Measured values reported in patent EP0802730B1, “PESTICIDAL COMPOUNDS” (BTG INTERNATIONAL LIMITED, priority 1995, dated 1996).
In brackets after ≈: the same amount, converted by molar mass. Like-named read-outs stand apart in the source and are kept apart here.

Assays:
Type in all cases: in vivo
[1] = system: Houseflies (MD) (Musca domestica); settings: for MD LD50 (µg/insect): Tables 10, 13, 14, NA = lack of detectable activity
Experimental: Female flies were treated on the thorax with a one microlitre drop of test compound dissolved in acetone. Two replicates of 15 flies were used at each dose rate and 6 dose rates were used per compound under test. After treatment, the flies were maintained at a temperature of 20° ± 1°C and kill was assessed 24 and 48 hours after treatment. LD50 values were calculated in micrograms of test compound per fly (see Sawicki et al., Bulletin of the World Health Organisation, 35, 893 (1966) and Sawicki et al., Entomologia and Exp. Appli 10, 253, (1967).

[2] = system: Mustard beetles (PC) (Phaedon cochleariae Fab); settings: for PC LD50 (µg/insect): Tables 10, 13, 14
Experimental: A one microlitre drop of an acetone solution of the test compound was applied ventrally to adult mustard beetles using a micro drop applicator. The treated insects were maintained for 48 hours after which time kill was assessed. Two replicates each of 20 to 25 mustard beetles were used at each dose level and 5 dose levels were treated comparably. LD50 values were calculated as for houseflies.

[3] = system: Mites (TU) (Tetranychus urticae), susceptible strain (GSS); experiment: Mite immersion test, susceptible strain GSS
Experimental: 25 adult female mites were immersed in 35 µl of a solution of the test compound in a 1:4 acetone-water mixture for 30 seconds. The treated insects were maintained at 21° ± 2°C and kill was assessed 72 hours after treatment. […] Three replicates of 25 mites each were used at each dose rate and 5 or 6 dose rates were used per compound under test. LC50 values were calculated in ppm of the solution of the test compound per insect. The test was carried out using a susceptible strain of mites (GSS) supplied by Schering, AG, Berlin.

[4] = system: Whitefly (BT) (Bemisia tabaci), susceptible strain (SUD-S); experiment: Whitefly residual film vial test, susceptible strain SUD-S
Experimental: Acetone solutions (0.100 ml) of the test compounds were placed in 10 ml glass vials and evaporated with rotation to deposit a film of the compound. Thirty adult whiteflies were placed inside the vial, then after 60 minutes, the treated insects were transferred onto untreated cotton leaf discs which were kept moist on a bed of agar gel. The temperature was maintained at 25°C and mortality assessed after 48 hours. Three replicates were used at each of 5 to 7 dose levels per compound.

[5] = system: Myzus persicae, susceptible strain (US1L); experiment: Aphid dip test, susceptible strain; settings: read-out: MP % kill 100 ppm
Experimental: Activity against resistant (R) and susceptible (S) strains of aphid (Myzus persicae) was assessed using the following method.
Entrapment rings of fluon were painted halfway up the inside of 4 cm lengths of glass tubing (1.5 cm diameter), and squares of insect-proof gauze were attached to one end of each tube by elastic bands. Fifteen apterous adults were then gently transferred into the tubes using a sable-hair brush, and the tube sealed with a second gauze square.
Tubes containing aphids were dipped into insecticide solutions for 10 seconds, dried on blotting paper, and then inverted and tapped to cause treated aphids to fall to the unimmersed end of each tube. Handling mortality (usually zero or very slight) was scored after 1 hour, when aphids were transferred onto chinese cabbage leaf-discs (35 mm diameter) on an agar bed (25 mm in depth) in disposible plastic containers (30 mm high) and confined by applying a ring of fluon to the exposed lip of the container. Containers were store upright, without lids, in a constant environment facility maintained at 25°C under continuous room lighting. Mortality was assessed at 24, 48 and 72 hours. Two replicates of 15 aphids each were used at each dose rate and 5 or 6 dose rates were used per compound under test.
The test was carried out using a susceptible strain of aphids (US1L) collected in the field in East Anglia, UK and an extremely resistant strain of aphids (794Jz) (R3 esterase, sensitive AChE) collected from glasshouses in the UK.
The values given are % mortality corrected for control data. The control comprised the test solution without active ingredient.

[6] = NA = lack of detectable activity
[7] = 72 h, Tables 10, 13, 14, susceptible strain, NA = lack of detectable activity, read-out: TU LC50 (ppm/insect)
[8] = 48 h, Tables 10, 13, 14, susceptible strain, NA = lack of detectable activity, read-out: BT LC50 (ppm/insect)
[9] = topical 1 µl drop in acetone on female flies, kill assessed 24 and 48 hours
[10] = 1 µl acetone drop applied ventrally to adults, kill at 48 hours, NA = lack of detectable activity
[11] = ppm solution of test compound, 30 seconds immersion, kill at 72 hours, read-out: TU(GSS) (LC50)
[12] = ppm solution of test compound, 60 minutes film exposure, mortality after 48 hours, read-out: BT(SUD-S) (LC50)

SMILES | MD LD50 (µg/insect) [1] | PC LD50 (µg/insect) [2, 6] | LC50 [3, 7] [µg/mL] | LC50 [4, 8] [µg/mL] | mortality at 100 ppm [5] [%] | further results
CC(C)(C)CCCCC1=C(O)C(=O)c2ccccc2C1=O [Example 38, 2-(5,5-dimethylhexyl)-3-hydroxy-naphthalene-1,4-dione] | 5.3 µg/insect | c8 µg/insect | 3.5 (≈ 12.2 µM) | ~60 (≈ 210 µM) | ~100 | 
CC(C)(C)CCCC1=C(O)C(=O)c2ccccc2C1=O [Example 37, 2-(4,4-dimethylpentyl)-3-hydroxy-naphthalene-1,4-dione] |  |  | 2.9 (≈ 10.6 µM) | 16 (≈ 58.7 µM) | ~70 | 
CCCCCCC1=C(O)C(=O)c2ccccc2C1=O [-(CH2)5CH3, reference compound] | c20 µg/insect | c7 µg/insect | 170 (≈ 658 µM) | 9.4 (≈ 36.4 µM) | 0 | 
C=CC(C)(C)C1=C(OC(=O)CCCCC)C(=O)c2ccccc2C1=O [Example 7] |  |  |  |  |  | MD (LD50) [1, 9]: > 20 µg/insect; PC (LD50) [2, 10]: c. 6.0 µg/insect; LC50 [3, 11]: 53 µg/mL (≈ 156 µM); LC50 [4, 12]: < 100 µg/mL
O=C1C(O)=C(C2(C(F)(F)F)CCCCC2)C(=O)c2ccccc21 [Example 28, 2-hydroxy-3-(1'-trifluoromethylcyclohexyl)-naphthalene-1,4-dione] | 14 µg/insect |  | 40 (≈ 123 µM) | 24 (≈ 74 µM) | 5 | 
CC(=O)OC1=C(CCCCCCC=CCC(C)(C)C)C(=O)c2ccccc2C1=O [Example 49, 2-ethanoyoxy-3-(10,10-dimethylundecan-7-enyl)-naphthalene-1,4-dione] | c18 µg/insect | c10 µg/insect | 2.3 (≈ 5.8 µM) |  | ~15 | 
C=CC(C)(C)C1=C(OC(=O)C(C)C)C(=O)c2ccccc2C1=O [Example 10] |  |  |  |  |  | MD (LD50) [1, 9]: > 20 µg/insect; PC (LD50) [2, 10]: c. 6.0 µg/insect; LC50 [3, 11]: 15 µg/mL (≈ 48 µM); LC50 [4, 12]: 35 µg/mL (≈ 112 µM)
CC1(C2=C(O)C(=O)c3ccccc3C2=O)CCCC1 [Example 24, 2-hydroxy-3-(1'-methylcyclopentyl)-naphthalene-1,4-dione] |  |  | 48 (≈ 187 µM) | 33 (≈ 129 µM) | 44 | 
C=CC(C)(C)C1=C(OC(=O)CC)C(=O)c2ccccc2C1=O [Example 4] |  |  |  |  |  | MD (LD50) [1, 9]: 8.2 µg/insect; PC (LD50) [2, 10]: 3.9 µg/insect; LC50 [3, 11]: 18 µg/mL (≈ 60.3 µM); LC50 [4, 12]: 5.3 µg/mL (≈ 17.8 µM)
CCCCC1=C(O)C(=O)c2ccccc2C1=O [-(CH2)3CH3, reference compound] | c10 µg/insect | c5 µg/insect | 65 (≈ 282 µM) | 13 (≈ 56.5 µM) |  | 
CCC1(C2=C(O)C(=O)c3ccccc3C2=O)CCCCC1 [Example 26, 2-(1'-ethylcyclohexyl)-3-hydroxy-naphthalene-1,4-dione] | 13 µg/insect | 2.9 µg/insect | > 100 | 2.9 (≈ 10.2 µM) |  | 
CC(C)(C)CCC1=C(O)C(=O)c2ccccc2C1=O [Example 36, 2-(3,3-dimethylbutyl)-3-hydroxy-naphthalene-1,4-dione] |  | 1.3 µg/insect | 36 (≈ 139 µM) | ~7 (≈ 27.1 µM) | ~24 | 
CC1(CC2=C(O)C(=O)c3ccccc3C2=O)CCCCC1 [Example 32, 2-hydroxy-3-((1'methylcyclohexyl)-methyl)-naphthalene-1,4-dione] | 3.6 µg/insect | <2 µg/insect | 2.9 (≈ 10.2 µM) | 3.6 (≈ 12.7 µM) | 50 | 
CC(C)(C)CCCCCCC1=C(O)C(=O)c2ccccc2C1=O [Example 40] | c5 µg/insect |  | 5 (≈ 15.9 µM) | 13 (≈ 41.3 µM) | ~100 | 
C=CC1(C2=C(O)C(=O)c3ccccc3C2=O)CCCCC1 [Example 27, 2-(1'-ethenecyclohexyl)-3-hydroxy-naphthalene-1,4-dione] | 6.0 µg/insect | 4.7 µg/insect | ~80 (≈ 283 µM) | 0.9 (≈ 3.19 µM) |  | 
CCCCCCCCCCCCC1=C(O)C(=O)c2ccccc2C1=O [-(CH2)11CH3, reference compound] |  |  | < 60 | > 100 | 0 | 
CC(C)(C)CCCCCC1=C(O)C(=O)c2ccccc2C1=O [Example 39] | c5 µg/insect |  | 9.6 (≈ 32 µM) | 21 (≈ 69.9 µM) | ~100 | 
CC(=O)OC1=C(C(C)(C)C)C(=O)c2ccccc2C1=O [Example 46] | 2.3 µg/insect | c15 µg/insect | ~500 (≈ 1840 µM) |  | ~60 | 
CCCC(C)(C)C1=C(O)C(=O)c2ccccc2C1=O [Example 16] |  |  |  |  |  | MD (LD50) [1, 9]: 8.8 µg/insect; PC (LD50) [2, 10]: c. 10 µg/insect; LC50 [3, 11]: 91 µg/mL (≈ 352 µM); LC50 [4, 12]: 10 µg/mL (≈ 38.7 µM)
CC(C)(C)C=CCCCCC1=C(O)C(=O)c2ccccc2C1=O [Example 44, 2-(7,7-dimethyloct-5-enyl)-3-hydroxy-naphthalene-1,4-dione] | c10 µg/insect |  | 4.3 (≈ 13.8 µM) | ~100 (≈ 320 µM) | ~100 | 
CC(C)(C)C=CCCCC1=C(O)C(=O)c2ccccc2C1=O [Example 43, 2-(6,6-dimethylhep-4-enyl)-3-hydroxy-naphthalene-1,4-dione] |  |  | 11.5 (≈ 38.5 µM) | ~60 (≈ 201 µM) | ~100 | 
CCCCCC(C)(C)C1=C(O)C(=O)c2ccccc2C1=O [Example 18] |  |  |  |  |  | MD (LD50) [1, 9]: 13 µg/insect; PC (LD50) [2, 10]: c. 15 µg/insect; LC50 [3, 11]: ~100 µg/mL (≈ 349 µM); LC50 [4, 12]: 10 µg/mL (≈ 34.9 µM)
CC(C)(C)C1CCC(C2=C(O)C(=O)c3ccccc3C2=O)CC1 (stereo not shown) [Compound B, 2-hydroxy-3-(4-t-butylcyclohexyl)-naphthalene-1,4-dione, reference compound] |  |  |  |  |  | MD (LD50) ([1]; house fly, in vivo): 15.5; PC (LD50) ([2]; mustard beetle, in vivo, 2880 min): 0.53; LC50 ([3]; 72 h, text b201, no unit printed there, read-out: TU (GSS) LC50): 44 µg/mL (≈ 141 µM); LC50 ([4]; 48 h, text b201, no unit printed there, read-out: BT(SUD-S) LC50): 18 µg/mL (≈ 57.6 µM)
